Source: PubChem BioAssay AID256 (DTP/NCI, 2004)
Where “and” joins values, the source holds several entries; their conditions need not be identical. Identical values can stand only once. Toxic doses and inconclusive results are not listed.

Tested on: CD2F1 mice, L1210 leukemia ip, survival T/C
Assay: NCI In Vivo Anticancer Drug Screen. Data for tumor model L1210 Leukemia (intraperitoneal) in CD2F1 (CDF1) mice
Details: higher = longer survival
How it was run: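 Read-out first: treated-group measurement over vehicle-control measurement, expressed as a ratio. Animals bore a transplanted tumor line and were dosed with compound or vehicle.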

[1] = endpoint: mean survival time, dose: 100.0 mg/kg/injection, schedule: Q01DX009 (ip), vehicle: saline with Tween-80
[2] = endpoint: mean survival time, dose: 200.0 mg/kg/injection, schedule: Q01DX009 (ip), vehicle: saline with Tween-80
[3] = endpoint: mean survival time, dose: 400.0 mg/kg/injection, schedule: Q01DX009 (ip), vehicle: saline with Tween-80
[4] = endpoint: mean survival time, dose: 100.0 mg/kg/injection, schedule: Q04DX003 (ip), vehicle: saline with Tween-80
[5] = endpoint: mean survival time, dose: 200.0 mg/kg/injection, schedule: Q04DX003 (ip), vehicle: saline with Tween-80
[6] = endpoint: mean survival time, dose: 400.0 mg/kg/injection, schedule: Q04DX003 (ip), vehicle: saline with Tween-80
[7] = endpoint: mean survival time, dose: 100.0 mg/kg/injection, schedule: Q01DX001 (ip), vehicle: saline with Tween-80
[8] = endpoint: mean survival time, dose: 200.0 mg/kg/injection, schedule: Q01DX001 (ip), vehicle: saline with Tween-80
[9] = endpoint: mean survival time, dose: 400.0 mg/kg/injection, schedule: Q01DX001 (ip), vehicle: saline with Tween-80
[10] = endpoint: mean survival time, dose: 50.0 mg/kg/injection, schedule: Q01DX001 (ip), vehicle: saline with Tween-80
[11] = endpoint: median survival time, dose: 25.0 mg/kg/injection, schedule: Q01DX009 (ip), vehicle: saline with Tween-80
[12] = endpoint: median survival time, dose: 50.0 mg/kg/injection, schedule: Q01DX009 (ip), vehicle: saline with Tween-80
[13] = endpoint: median survival time, dose: 100.0 mg/kg/injection, schedule: Q01DX009 (ip), vehicle: saline with Tween-80
[14] = endpoint: median survival time, dose: 200.0 mg/kg/injection, schedule: Q01DX009 (ip), vehicle: saline with Tween-80
[15] = endpoint: mean survival time, dose: 100.0 mg/kg/injection, schedule: Q04DX002 (ip), vehicle: saline with Tween-80
[16] = endpoint: mean survival time, dose: 200.0 mg/kg/injection, schedule: Q04DX002 (ip), vehicle: saline with Tween-80
[17] = endpoint: mean survival time, dose: 400.0 mg/kg/injection, schedule: Q04DX002 (ip), vehicle: saline with Tween-80

O=C(CC(SCCN1CCOCC1)c1ccccc1)c1ccc([N+](=O)[O-])cc1 (centres undefined)
T/C (endpoint: mean survival time, dose: 100.0 mg/kg/injection, schedule: Q01DX001 (ip), vehicle: Klucel (hydroxypropylcellulose) (HPC)): 93 % of control | T/C (endpoint: mean survival time, dose: 200.0 mg/kg/injection, schedule: Q01DX001 (ip), vehicle: Klucel (hydroxypropylcellulose) (HPC)): 93 % of control

COc1ccc(OC)c(CC(C(C)=O)C(C)=O)c1
T/C (endpoint: mean survival time, dose: 12.5 mg/kg/injection, schedule: Q01DX009 (ip), vehicle: water): 100 % of control | T/C (endpoint: mean survival time, dose: 25.0 mg/kg/injection, schedule: Q01DX009 (ip), vehicle: water): 96 % of control | T/C (endpoint: mean survival time, dose: 50.0 mg/kg/injection, schedule: Q01DX009 (ip), vehicle: water): 100 % of control | T/C (endpoint: mean survival time, dose: 100.0 mg/kg/injection, schedule: Q01DX009 (ip), vehicle: water): 98 % of control | T/C (endpoint: mean survival time, dose: 200.0 mg/kg/injection, schedule: Q01DX009 (ip), vehicle: water): 95 % of control

O=C(CNC(=O)Nc1cccc(Cl)c1)N/N=C/c1ccccc1Cl
T/C [1]: 106 % of control | T/C [2]: 109 % of control | T/C [3]: 112 % of control

CC(=O)OC1CCC2(C)C(=CCC3C2CCC2(C)C(C(=O)CC(O)(C(F)(F)F)C(F)(F)F)CCC32)C1 (centres undefined)
T/C (endpoint: mean survival time, dose: 12.5 mg/kg/injection, schedule: Q04DX002 (ip), vehicle: saline with Tween-80): 98 % of control | T/C (endpoint: mean survival time, dose: 25.0 mg/kg/injection, schedule: Q04DX002 (ip), vehicle: saline with Tween-80): 90 % of control | T/C (endpoint: mean survival time, dose: 50.0 mg/kg/injection, schedule: Q04DX002 (ip), vehicle: saline with Tween-80): 94 % of control

CN1C(=O)C(C)(C)C(=O)C1(C)C
T/C (endpoint: mean survival time, dose: 25.0 mg/kg/injection, schedule: Q01DX001 (ip), vehicle: saline): 103 % of control | T/C (endpoint: mean survival time, dose: 50.0 mg/kg/injection, schedule: Q01DX001 (ip), vehicle: saline): 104 % of control | T/C (endpoint: mean survival time, dose: 100.0 mg/kg/injection, schedule: Q01DX001 (ip), vehicle: saline): 103 % of control

CC(C)(C)C1CC(=O)N(c2ccccc2)N1 (centres undefined)
T/C [4]: 106 % of control | T/C [5]: 98 % of control | T/C [6]: 98 % of control

CCCCCCCCN(C#N)CCCCCCCC
T/C [1]: 100 % of control | T/C [2]: 95 % of control | T/C [3]: 97 % of control

CCCCC(N)C(=O)O (centres undefined)
T/C [7]: 104 % of control | T/C (endpoint: mean survival time, dose: 100.0 mg/kg/injection, schedule: Q04DX003 (ip), vehicle: saline): 105 % of control | T/C [8]: 104 % of control | T/C (endpoint: mean survival time, dose: 200.0 mg/kg/injection, schedule: Q04DX003 (ip), vehicle: saline): 103 % of control | T/C [9]: 102 % of control | T/C (endpoint: mean survival time, dose: 400.0 mg/kg/injection, schedule: Q04DX003 (ip), vehicle: saline): 95 % of control

O=C(/C(=N\O)c1ccc(Cl)cc1)c1ccc(Cl)cc1
T/C [4]: 95 % of control | T/C [5]: 87 % of control

CCc1c(C)c(C)cc(S(=O)(=O)O)c1C
T/C (endpoint: mean survival time, dose: 50.0 mg/kg/injection, schedule: Q01DX009 (ip), vehicle: saline with Tween-80): 104 % of control | T/C [1]: 93 % of control | T/C [4]: 101 % of control | T/C [2]: 89 % of control | T/C [5]: 87 % of control

Nc1nc(N)c(CCCCc2ccc(NC(=O)c3cccc(S(=O)(=O)F)c3)cc2)c(N)n1
T/C [10]: 96 % of control | T/C [7]: 107 % of control | T/C [8]: 100 % of control

CC(C)(C)C1=CC(=O)C(Cl)(C(C)(C)C)C(Cl)C1=O (centres undefined)
T/C (endpoint: mean survival time, dose: 25.0 mg/kg/injection, schedule: Q01DX001 (ip), vehicle: saline with Tween-80): 97 % of control | T/C [10]: 93 % of control

O=C(COc1ccc(Cl)cc1Cl)Nc1cc[n+](Cc2ccc(S(=O)(=O)F)cc2)cc1
T/C [4]: 98 % of control | T/C [5]: 98 % of control | T/C [6]: 95 % of control

CC(C)CCOC(=O)Nc1cccc(O)c1
T/C [4]: 98 % of control | T/C [5]: 100 % of control | T/C [6]: 101 % of control

CC(=O)NCC(O)C(O)C(O)C(O)CO (centres undefined)
T/C (endpoint: mean survival time, dose: 100.0 mg/kg/injection, schedule: Q01DX009 (ip), vehicle: saline): 96 % of control | T/C (endpoint: mean survival time, dose: 200.0 mg/kg/injection, schedule: Q01DX009 (ip), vehicle: saline): 98 % of control | T/C (endpoint: mean survival time, dose: 400.0 mg/kg/injection, schedule: Q01DX009 (ip), vehicle: saline): 110 % of control

Clc1ccccc1C(Nc1cnccn1)Nc1cnccn1
T/C [11]: 97 % of control and 102 % of control | T/C [12]: 97 % of control and 110 % of control | T/C [13]: 108 % of control and 109 % of control | T/C [14]: 113 % of control and 124 % of control | T/C (endpoint: median survival time, dose: 400.0 mg/kg/injection, schedule: Q01DX009 (ip), vehicle: saline with Tween-80): 92 % of control

C/C(=C\C(=O)C(C)(C)C)C(C)(C)C
T/C [7]: 93 % of control | T/C [8]: 96 % of control | T/C [9]: 96 % of control

O=Cc1[nH]c(=S)[nH]c(=O)c1Cc1ccc(Cl)cc1
T/C [4]: 104 % of control

CN(C)/C=C\C(=O)O
T/C [15]: 102 % of control | T/C [16]: 102 % of control | T/C [17]: 98 % of control

Cc1nnnn1C12CC3CC(CC(C3)C1)C2
T/C (endpoint: mean survival time, dose: 9.4 mg/kg/injection, schedule: Q01DX009 (ip), vehicle: saline with Tween-80): 94 % of control

CNC(=O)Oc1ccc(S(=O)(=O)c2ccc(OC(=O)NC)cc2)cc1
T/C (endpoint: median survival time, dose: 12.5 mg/kg/injection, schedule: Q01DX009 (ip), vehicle: saline with Tween-80): 103 % of control | T/C [11]: 115 % of control and 112 % of control | T/C (endpoint: median survival time, dose: 43.0 mg/kg/injection, schedule: Q01DX005 (ip), vehicle: saline with Tween-80): 113 % of control | T/C (endpoint: median survival time, dose: 43.0 mg/kg/injection, schedule: Q01DX009 (ip), vehicle: saline with Tween-80): 102 % of control | T/C [12]: 120 % of control | T/C (endpoint: median survival time, dose: 72.0 mg/kg/injection, schedule: Q01DX005 (ip), vehicle: saline with Tween-80): 108 % of control and 109 % of control | T/C (endpoint: median survival time, dose: 72.0 mg/kg/injection, schedule: Q01DX009 (ip), vehicle: saline with Tween-80): 101 % of control | T/C [13]: 122 % of control | T/C (endpoint: median survival time, dose: 120.0 mg/kg/injection, schedule: Q01DX005 (ip), vehicle: saline with Tween-80): 109 % of control and 112 % of control | T/C (endpoint: median survival time, dose: 120.0 mg/kg/injection, schedule: Q01DX009 (ip), vehicle: saline with Tween-80): 106 % of control | T/C (endpoint: median survival time, dose: 200.0 mg/kg/injection, schedule: Q01DX005 (ip), vehicle: saline with Tween-80): 104 % of control and 109 % of control | T/C [14]: 151 % of control | T/C (endpoint: median survival time, dose: 333.0 mg/kg/injection, schedule: Q01DX005 (ip), vehicle: saline with Tween-80): 109 % of control

COc1ccc(-c2nc(N)c3ncn(C4OC(CO)C(O)C4O)c3n2)cc1 (centres undefined)
T/C (endpoint: mean survival time, dose: 12.5 mg/kg/injection, schedule: Q01DX005 (ip), vehicle: distilled water + Tween-80): 98 % of control | T/C (endpoint: mean survival time, dose: 25.0 mg/kg/injection, schedule: Q01DX005 (ip), vehicle: distilled water + Tween-80): 98 % of control | T/C (endpoint: mean survival time, dose: 50.0 mg/kg/injection, schedule: Q01DX005 (ip), vehicle: distilled water + Tween-80): 96 % of control | T/C (endpoint: mean survival time, dose: 200.0 mg/kg/injection, schedule: Q01DX005 (ip), vehicle: distilled water + Tween-80): 88 % of control

CN1CCN(c2ccccc2N)CC1
T/C (endpoint: mean survival time, dose: 5.0 mg/kg/injection, schedule: Q01DX009 (ip), vehicle: saline with Tween-80): 108 % of control | T/C (endpoint: mean survival time, dose: 10.0 mg/kg/injection, schedule: Q01DX009 (ip), vehicle: saline with Tween-80): 108 % of control | T/C (endpoint: mean survival time, dose: 20.0 mg/kg/injection, schedule: Q01DX009 (ip), vehicle: saline with Tween-80): 102 % of control

C=CCC(C)(C)/C=N/N
T/C (endpoint: mean survival time, dose: 37.5 mg/kg/injection, schedule: Q01DX009 (ip), vehicle: saline): 101 % of control | T/C (endpoint: mean survival time, dose: 75.0 mg/kg/injection, schedule: Q01DX001 (ip), vehicle: saline): 95 % of control | T/C (endpoint: mean survival time, dose: 75.0 mg/kg/injection, schedule: Q01DX009 (ip), vehicle: saline): 100 % of control | T/C (endpoint: mean survival time, dose: 150.0 mg/kg/injection, schedule: Q01DX001 (ip), vehicle: saline): 98 % of control | T/C (endpoint: mean survival time, dose: 150.0 mg/kg/injection, schedule: Q01DX009 (ip), vehicle: saline): 107 % of control

Cc1ccc(S(=O)(=O)OC2C(O)C(CO)OC2n2c(Br)c(C#N)c3c(N)ncnc32)cc1 (centres undefined)
T/C (endpoint: mean survival time, dose: 25.0 mg/kg/injection, schedule: Q01DX005 (ip), vehicle: saline with Tween-80): 93 % of control | T/C (endpoint: mean survival time, dose: 50.0 mg/kg/injection, schedule: Q01DX005 (ip), vehicle: saline with Tween-80): 102 % of control | T/C (endpoint: mean survival time, dose: 100.0 mg/kg/injection, schedule: Q01DX005 (ip), vehicle: saline with Tween-80): 100 % of control | T/C (endpoint: mean survival time, dose: 200.0 mg/kg/injection, schedule: Q01DX005 (ip), vehicle: saline with Tween-80): 96 % of control

CC(C)(C)COC(=S)Oc1ccc(C(C)(C)C)cc1
T/C [15]: 89 % of control | T/C [16]: 104 % of control | T/C [17]: 100 % of control
